Tests used:
Assay in all cases: Greenhouse whole-plant imazapir dose response (Example 8)
Format in all cases: in vivo, Helianthus annuus
[1] = tested on: sunflower GIM 5-6 (Restorer Line, A122T); conditions: GIM5-6, 14 DAT
Description: (§1) A greenhouse study was conducted to quantify and contrast the imazapir sensitivity of the mutants A122T and A205V in different genetic backgrounds at the whole plant level in sunflower. Seeds of the different sunflower lines that were used in this study were obtained under field conditions.
(§2) Seeds were sown in Petri dishes and, after germination, plantlets were transplanted to pots of 10 cm of diameter in a potting media consisting of equal parts of vermiculite, soil and sand. Plants were grown in a greenhouse under natural light conditions supplemented with 400 W sodium halide lamps to provide a 16 hrs daylength. Day/night temperatures were 25 and 20° C., respectively. At the V2 stage 10 plants of each genotype were randomly assigned to each treatment consisting of […] imazapir doses (0, 40, 80, 160, 240, 320, 400 and 480 g ai/ha), and a zero-time biomass determination. Experiment was arranged as a randomized block design with a full factorial (sunflower line×treatment) arrangement of treatments and 10 replications.
(§3) On the day of herbicide application ten plants of each genotype were cut at the cotyledonal node and dried at 60° C. for 48 hrs zero-time for dried weight determination. […] Height was determined as the distance between the cotyledonal node and the apex of each plant. For root biomass determination, each plant was taken from the pot and the potting media was washed out from the roots. Above ground biomass data from each line were converted to biomass accumulation after application by subtracting the appropriate average zero-time biomass from each sample. Dry biomass data were converted to percentages of the untreated control plants within each line to allow direct comparisons between groups.

[2] = tested on: sunflower IB920 (Manteiner Line, A205V); conditions: 14 DAT
Description: as §1, §2, §3

[3] = tested on: sunflower IR79 (Restorer Line, A205V); conditions: 14 DAT
Description: as §1, §2, §3

**Q.** `CC(C)C1(C)N=C(c2ncccc2C(=O)O)NC1=O` (stereo not shown) [imazapir, imazapyr] was tested. Which “biomass accumulation (dry biomass, % of untreated)” value ([1]; 0.5× (40 g ai/ha)) did it give?
**A.** 100.0%

**Q.** And the “plant height (% of untreated)” value ([1]; 0.5× (40 g ai/ha))?
**A.** 100.0%

**Q.** And the “root dry weight (% of untreated)” value ([1]; 0.5× (40 g ai/ha))?
**A.** 100%

**Q.** And the “biomass accumulation (dry biomass, % of untreated)” value ([1]; 1× (80 g ai/ha))?
**A.** 96.4%

**Q.** And the “plant height (% of untreated)” value ([1]; 1× (80 g ai/ha))?
**A.** 100.0%

**Q.** And the “root dry weight (% of untreated)” value ([1]; 1× (80 g ai/ha))?
**A.** 88.0%

**Q.** What about the “biomass accumulation (dry biomass, % of untreated)” value ([1]; 2× (160 g ai/ha)) of the same compound?
**A.** 97.7%

**Q.** What about the “plant height (% of untreated)” value ([1]; 2× (160 g ai/ha)) of the same compound?
**A.** 99.1%

**Q.** What about the “root dry weight (% of untreated)” value ([1]; 2× (160 g ai/ha)) of the same compound?
**A.** 90.0%

**Q.** What about the “biomass accumulation (dry biomass, % of untreated)” value ([1]; 3× (240 g ai/ha)) of the same compound?
**A.** 95.8%

**Q.** And the “plant height (% of untreated)” value ([1]; 3× (240 g ai/ha))?
**A.** 98.1%

**Q.** And the “root dry weight (% of untreated)” value ([1]; 3× (240 g ai/ha))?
**A.** 98.0%

**Q.** What about the “biomass accumulation (dry biomass, % of untreated)” value ([1]; 4× (320 g ai/ha)) of the same compound?
**A.** 90.8%

**Q.** And the “plant height (% of untreated)” value ([1]; 4× (320 g ai/ha))?
**A.** 91.0%

**Q.** What about the “root dry weight (% of untreated)” value ([1]; 4× (320 g ai/ha)) of the same compound?
**A.** 80.0%

**Q.** And the “biomass accumulation (dry biomass, % of untreated)” value ([1]; 5× (400 g ai/ha))?
**A.** 81.9%

**Q.** And the “plant height (% of untreated)” value ([1]; 5× (400 g ai/ha))?
**A.** 94.3%

**Q.** What about the “root dry weight (% of untreated)” value ([1]; 5× (400 g ai/ha)) of the same compound?
**A.** 80.0%

**Q.** What about the “biomass accumulation (dry biomass, % of untreated)” value ([1]; 6× (480 g ai/ha)) of the same compound?
**A.** 78.0%

**Q.** What about the “plant height (% of untreated)” value ([1]; 6× (480 g ai/ha)) of the same compound?
**A.** 85.8%

**Q.** And the “root dry weight (% of untreated)” value ([1]; 6× (480 g ai/ha))?
**A.** 65.8%

**Q.** What about the “biomass accumulation (dry biomass, % of untreated)” value ([2]; 0.5× (40 g ai/ha)) of the same compound?
**A.** 93.9%

**Q.** What about the “plant height (% of untreated)” value ([2]; 0.5× (40 g ai/ha)) of the same compound?
**A.** 96.2%

**Q.** What about the “root dry weight (% of untreated)” value ([2]; 0.5× (40 g ai/ha)) of the same compound?
**A.** 94.0%

**Q.** And the “biomass accumulation (dry biomass, % of untreated)” value ([2]; 1× (80 g ai/ha))?
**A.** 87.9%

**Q.** And the “plant height (% of untreated)” value ([2]; 1× (80 g ai/ha))?
**A.** 80.0%

**Q.** And the “root dry weight (% of untreated)” value ([2]; 1× (80 g ai/ha))?
**A.** 89.6%

**Q.** What about the “biomass accumulation (dry biomass, % of untreated)” value ([2]; 2× (160 g ai/ha)) of the same compound?
**A.** 58.8%

**Q.** What about the “plant height (% of untreated)” value ([2]; 2× (160 g ai/ha)) of the same compound?
**A.** 61.5%

**Q.** And the “root dry weight (% of untreated)” value ([2]; 2× (160 g ai/ha))?
**A.** 50.7%

**Q.** What about the “biomass accumulation (dry biomass, % of untreated)” value ([2]; 3× (240 g ai/ha)) of the same compound?
**A.** 46.4%

**Q.** And the “plant height (% of untreated)” value ([2]; 3× (240 g ai/ha))?
**A.** 40.9%

**Q.** What about the “root dry weight (% of untreated)” value ([2]; 3× (240 g ai/ha)) of the same compound?
**A.** 37.3%

**Q.** What about the “biomass accumulation (dry biomass, % of untreated)” value ([2]; 4× (320 g ai/ha)) of the same compound?
**A.** 35.5%

**Q.** And the “plant height (% of untreated)” value ([2]; 4× (320 g ai/ha))?
**A.** 27.9%

**Q.** What about the “root dry weight (% of untreated)” value ([2]; 4× (320 g ai/ha)) of the same compound?
**A.** 32.8%

**Q.** And the “plant height (% of untreated)” value ([2]; 5× (400 g ai/ha))?
**A.** 30.0%

**Q.** What about the “root dry weight (% of untreated)” value ([2]; 5× (400 g ai/ha)) of the same compound?
**A.** 25.4%

**Q.** And the “biomass accumulation (dry biomass, % of untreated)” value ([2]; 6× (480 g ai/ha))?
**A.** 29.4%

**Q.** And the “root dry weight (% of untreated)” value ([2]; 6× (480 g ai/ha))?
**A.** 19.4%

**Q.** And the “biomass accumulation (dry biomass, % of untreated)” value ([3]; 0.5× (40 g ai/ha))?
**A.** 94.4%

**Q.** And the “plant height (% of untreated)” value ([3]; 0.5× (40 g ai/ha))?
**A.** 92.8%

**Q.** And the “root dry weight (% of untreated)” value ([3]; 0.5× (40 g ai/ha))?
**A.** 98.6%

**Q.** What about the “biomass accumulation (dry biomass, % of untreated)” value ([3]; 1× (80 g ai/ha)) of the same compound?
**A.** 74.0%

**Q.** And the “plant height (% of untreated)” value ([3]; 1× (80 g ai/ha))?
**A.** 80.9%

**Q.** What about the “root dry weight (% of untreated)” value ([3]; 1× (80 g ai/ha)) of the same compound?
**A.** 53.4%

**Q.** What about the “biomass accumulation (dry biomass, % of untreated)” value ([3]; 2× (160 g ai/ha)) of the same compound?
**A.** 67.7%

**Q.** And the “plant height (% of untreated)” value ([3]; 2× (160 g ai/ha))?
**A.** 74.9%

**Q.** What about the “root dry weight (% of untreated)” value ([3]; 2× (160 g ai/ha)) of the same compound?
**A.** 42.5%

**Q.** And the “biomass accumulation (dry biomass, % of untreated)” value ([3]; 3× (240 g ai/ha))?
**A.** 49.1%

**Q.** And the “plant height (% of untreated)” value ([3]; 3× (240 g ai/ha))?
**A.** 55.7%

**Q.** What about the “root dry weight (% of untreated)” value ([3]; 3× (240 g ai/ha)) of the same compound?
**A.** 38.4%

**Q.** And the “biomass accumulation (dry biomass, % of untreated)” value ([3]; 4× (320 g ai/ha))?
**A.** 44.5%

**Q.** What about the “plant height (% of untreated)” value ([3]; 4× (320 g ai/ha)) of the same compound?
**A.** 52.8%

**Q.** What about the “root dry weight (% of untreated)” value ([3]; 4× (320 g ai/ha)) of the same compound?
**A.** 31.5%

**Q.** And the “biomass accumulation (dry biomass, % of untreated)” value ([3]; 5× (400 g ai/ha))?
**A.** 40.1%

**Q.** What about the “plant height (% of untreated)” value ([3]; 5× (400 g ai/ha)) of the same compound?
**A.** 41.7%

**Q.** What about the “root dry weight (% of untreated)” value ([3]; 5× (400 g ai/ha)) of the same compound?
**A.** 23.3%
